Test results published in US12473536B2, “Cultured meat product with genetically modified cells” (Trustees of Tufts College, priority 2019, dated 2025).
Where “and” joins values, the source holds several entries; their conditions need not be identical. Equal values may be shown once.

What was measured:
a range of cell types = conditions: cited from earlier work
[1] = test system: primary bovine satellite cells (BSCs); assay: Carotenoid quantification by quantitative HPLC in engineered BSCs; type: cell-based; conditions: for Effect of ketoconazole and puromycin conditioning on β-carotene: pCrtB/I/Y BSCs
C2C12s = assay: Eight-day cell growth by dsDNA quantitation, C2C12s; type: cell-based, mouse; conditions: for Growth of engineered cells: over eight days, vs cells engineered with pGFP or pCrtB
Method: (§1) Growth and development of engineered cells—Growth of engineered BSCs and C2C12s was analyzed using a dsDNA quantitation kit (ThermoFisher #F2962) on days 1, 2, 4, 6, and 8 of culture. Cells were plated in 96-well plates for each time-point at a density of 1000 cells/well. At each time-point, media was removed from wells and plates were frozen at −80° C. After all time-points were frozen, plates were thawed to room temperature, and 100 uL of UltraPure water (ThermoFisher #10977023) was added to wells. Plates were incubated at 37° C. for one hour, re-frozen to −80° C., and re-thawed to room temperature. Wells were stained with 100 uL of Hoechst 33258 working solution. Fluorescence was measured with a Synergy H1 microplate reader (BioTek Instruments, Winooski, VT, USA) using excitation and emission filters centered at 360 and 460 nm, respectively. In parallel, a 96-well plate was seeded with a range of known cell densities, incubated for 12 hours, and measured using the same protocol to obtain a standard curve and convert fluorescence values to cell number. […]
(§2) Carotenoid optimization—Two methods were explored for optimizing carotenoid production in pCrtB/I/Y cells. […] To determine an appropriate puromycin concentration for increasing enzyme expression, engineered cells were cultured in media containing 2.5 μg/mL puromycin (1× puro), 5 μg/mL puromycin (2× puro) or 10 μg/mL puromycin (4× puro), and relative GFP expression was determined via flow cytometry as a proximate measure of enzyme expression. Briefly, cells were cultured, harvested, and GFP was analyzed using a BD FACSCalibur (BD Sciences) or Attune N×T (ThermoFisher) flow cytometer. Appropriate gating was performed using pGFP and unmodified cells as positive and negative controls, and mean fluorescent intensity was determined. Data were analyzed with the FlowJo software (v10). […]

[2] = test system: C2C12 mouse skeletal myoblasts; assay: Carotenoid quantification by quantitative HPLC in engineered C2C12s; type: cell-based; conditions: pCrtB/I/Y C2C12s
BSCs [3] = assay: Eight-day cell growth by dsDNA quantitation, BSCs; type: cell-based, bovine; conditions: 5 μg/mL, pCrtB/I/Y BSCs, 8-day growth
Method: as §1
Carotenoid optimization—Two methods were explored for optimizing carotenoid production in pCrtB/I/Y cells. […] Briefly, cells were cultured, harvested, and GFP was analyzed using a BD FACSCalibur (BD Sciences) or Attune N×T (ThermoFisher) flow cytometer. […] Data were analyzed with the FlowJo software (v10). […]

[4] = test system: bovine satellite cells (BSCs); assay: Adipogenic transdifferentiation of BSCs with free fatty acids (Oil Red O staining); type: cell-based; conditions: 100 uM to 150 uM
Excerpt: This adipogenic transdifferentiation protocol will be further optimized through a fractional factorial experimental design, testing various concentrations oleic, myristoleic, linoleic, erucic, and elaidic acid. Lipid accumulation will be verified qualitatively with Oil Red O staining and quantified with the AdipoRed plate reader assay (Lonza). Transdifferentiation of satellite cells into mature adipocytes will enable muscle and fat components of cultured meat to be generated from a single cell source throughout this proposal, thus increasing project efficiency and impact.

pCrtB/I/Y C2C12s = assay: GFP expression by flow cytometry under puromycin selection, C2C12s; type: cell-based, mouse; conditions: 4× concentration (10 μg/mL)
Excerpt: as §2, with “cells. The first focused on increasing gene expression by increasing puromycin selective pressure. The second focused on increasing levels of the carotenoid pathway precursor farnesyl pyrophosphate (FPP) by inhibiting downstream reactions in one of FPP's alternative metabolic pathways—cholesterol synthesis—using the small molecule ketoconazole (Sun et al., 2007). By exploring these two approaches, the possibility for a single approach to fail to address a rate-limiting step in carotenoid production was reduced.” for “cells.”

pCrtB/I/Y BSCs [5] = assay: GFP expression by flow cytometry under puromycin selection, BSCs; type: cell-based, bovine
Excerpt: as §2, with “cells. The first focused on increasing gene expression by increasing puromycin selective pressure. The second focused on increasing levels of the carotenoid pathway precursor farnesyl pyrophosphate (FPP) by inhibiting downstream reactions in one of FPP's alternative metabolic pathways—cholesterol synthesis—using the small molecule ketoconazole (Sun et al., 2007). By exploring these two approaches, the possibility for a single approach to fail to address a rate-limiting step in carotenoid production was reduced.” for “cells.”

BSCs [6] = assay: Four-day growth of BSCs in serum-free B8 media and FGF-2 dilutions; type: cell-based, bovine; conditions: four days, within B8 media
Method: Briefly, B8 media will be comprised of DMEM:F12 (1:1) supplemented with L-ascorbic acid 2-phosphate (200 ug/mL), insulin (20 ug/mL), transferrin (20 ug/mL), sodium selenite (20 ng/mL), FGF-2 (10 ng/mL), neuregulin 1 (NRG-1; 0.1 ng/mL), TGFβ-3 ([…]), and insulin-like growth factor 1 (IGF-1; 10 ng/mL). Formulations absent one or more growth factors will simultaneously generated, as will formulations lacking all growth factors but containing previously reported serum-replacements made from rapeseed peptide fractions, maitake mushroom extract, and silk-derived sericin proteins.

engineered BSCs = assay: Thiobarbituric acid reactive substances (TBARS) lipid oxidation assay, raw or heated cells; type: cell-based, bovine
Method: Lipid oxidation—To analyze the antioxidant functionality of carotenoids in cells, a thiobarbituric acid reactive substances (TBARS) assay was performed. This assay measures malondialdehyde (MDA), a byproduct of unsaturated fatty acid oxidation, and so serves as a measure of lipid oxidation in cells. As lipid oxidation is often catalyzed by the processes that generate oxidative pressure, such as cooking of meat, the TBARS assay was performed on both “raw” cells, and cells that had been heated to mimic cooking. Briefly, engineered BSCs were cultured as previously described, harvested, and counted. 1.5 million cells were aliquoted to tubes for heated or unheated analysis, washed 1× in PBS, pelleted, and the supernatant PBS was removed. Collected cell pellets were stored overnight at 4° C. The next day, samples designated for heating were incubated for 10 minutes in a 100° C. heat block, cooled to room temperature, and placed on ice. All cells (heated and unheated) were suspended in 500 μL of PBS, incubated for 2 hours on ice, and sonicated on ice using a probe sonicator (Branson, St. Louis, MO, USA) at 15% intensity for 5×15 second pulses, with 20 second intervals between pulses. Next, the TBARS assay (Cayman Chemical #700870, Ann Arbor, MI, USA) was performed with 100 μL of sonicated cell lysates, following the manufacturers protocol and determining MDA by measuring absorbance at 535 nm compared to a standard curve of known MDA concentrations. The remainders of the cell lysates were frozen at −80° C. until protein quantification was performed via Bradford assay (ThermoFisher #23200) following the manufacturers protocol. Briefly, 5 μL of cell lysates were incubated for 10 minutes with 250 uL of Coomassie reagent, and the absorbance was measured at 595 nm and compared to a BSA standard curve. TBARS measurements were normalized with protein content for each sample in order to obtain corrected cellular MDA (mg/g protein).

pCrtB/I/Y BSCs [7] = assay: Pax7 and MHC immunostaining of engineered BSCs before and after differentiation; type: cell-based, bovine
Method: Immunofluorescence and cell characterization—To confirm the identity of isolated primary BSCs, cells were stained for Pax7 and Myosin Heavy Chain (MHC) before and after differentiation, respectively. These markers confirm the primary and terminal states of satellite cell myogenesis and therefore act to verify the nature and myogenicity of isolated cells. Proliferative cells and cells after one week of differentiation were fixed with 4% paraformaldehyde (ThermoFisher #AAJ61899AK) for 30 minutes, washed in PBS, permeabilized for 15 minutes using 0.5% Triton X (Sigma #T8787) in PBS, blocked for 45 minutes using 5% goat serum (ThermoFisher #16210064) in PBS with 0.05% sodium azide (Sigma #S2002), and washed with PBS containing 0.1% Tween-20 (Sigma #P1379). […]
Growth and development of engineered cells—Growth of engineered BSCs and C2C12s was analyzed using a dsDNA quantitation kit (ThermoFisher #F2962) on days 1, 2, 4, 6, and 8 of culture. […] Fluorescence was measured with a Synergy H1 microplate reader (BioTek Instruments, Winooski, VT, USA) using excitation and emission filters centered at 360 and 460 nm, respectively. In parallel, a 96-well plate was seeded with a range of known cell densities, incubated for 12 hours, and measured using the same protocol to obtain a standard curve and convert fluorescence values to cell number. […]

pepsin = conditions: cited from earlier work
[8] = increasing levels of selection antibiotic
[9] = heated samples (10 minutes, 100° C.)

C=C(C)[C@@H]1CCC(C)=C[C@H]1c1c(O)cc(CCCCC)cc1O [cannabidiol]
Treatment range explored without mention of excess cell death (a range of cell types): 1-50 uM and 0.313-15.65 ug/mL

CC(=O)N1CCN(c2ccc(OCC3COC(Cn4ccnc4)(c4ccc(Cl)cc4Cl)O3)cc2)CC1 (stereo not drawn) [ketoconazole]
Effect of ketoconazole and puromycin conditioning on β-carotene [1]: additive increase in β-carotene | Effect on growth (C2C12s; 5 μg/mL, pCrtB/I/Y C2C12s, 8-day growth): not significantly effect growth | Effect of ketoconazole and puromycin together on β-carotene [2]: do not significantly increase β-carotene | Effect on growth (BSCs [3]): not significantly effect growth

CCCCC/C=C\C/C=C\CCCCCCCC(=O)O [linoleic acid]
Lipid accumulation (Oil Red O) [4]: Sparse lipid accumulation

COc1ccc(C[C@H](N)C(=O)N[C@H]2[C@@H](O)[C@H](n3cnc4c(N(C)C)ncnc43)O[C@@H]2CO)cc1 [puromycin]
Increase in carotenoid levels [1, 8]: ~3 fold | Effect of ketoconazole and puromycin conditioning on β-carotene [1]: additive increase in β-carotene | Effect on GFP expression (pCrtB/I/Y C2C12s): significant increase in GFP expression | Effect of ketoconazole and puromycin together on β-carotene [2]: do not significantly increase β-carotene | Effect on GFP expression (pCrtB/I/Y BSCs [5]; 4× concentration (10 μg/mL), BSCs): significant increase in GFP expression | Increase in gene expression (as shown by GFP expression) (pCrtB/I/Y BSCs [5]; [8]): two-fold

FGF-2: fibroblast growth-factor 2
FGF-2 concentration showing significantly improved growth vs FGF-2-free B8 media (BSCs [6]): greater than or equal to 1.25 ng/mL

pSBbi-(CMV-CrtB-T2A-)-pur [pCrtB]
Cellular MDA (lipid oxidation) (engineered BSCs; [9]): 3.6 mg/g protein | Cellular MDA (lipid oxidation) (engineered BSCs; unheated samples): 1.7 mg/g protein

pSBbi-(CMV-CrtB-T2A-CrtI-P2A-GFP)-pur [pCrtB/I]
Growth of engineered cells (C2C12s): higher growth over eight days | Cellular MDA (lipid oxidation) (engineered BSCs; [9]): 1.7 mg/g protein | Cellular MDA (lipid oxidation) (engineered BSCs; unheated samples): 1.0 mg/g protein

pSBbi-(CMV-CrtY-T2A-CrtB-T2A-CrtI-P2A-GFP)-pur [pCrtB/I/Y]
Myogenic potential (Pax7 and MHC staining) (pCrtB/I/Y BSCs [7]): maintenance of Pax7 expression and MHC-positive myotube formation | Growth of engineered cells (C2C12s): higher growth over eight days | Cellular MDA (lipid oxidation) (engineered BSCs; [9]): 2.3 mg/g protein | Cellular MDA (lipid oxidation) (engineered BSCs; unheated samples): 1.1 mg/g protein

B1: V565: anti-TNFα nanobody V565 (SEQ ID NO:7) (protein)
VHH: DVQLVESGGGLVQPGGSLKLSCAASGFDFSSHWMYWVRQAPGKELEWLSEINTNGLITHYGDSVKGRFTVSRNNAANKMYLELTRLEPEDTALYYCARNQHGLNKGQGTQVTVSS
Sensitivity to pepsin (pepsin): sensitive to pepsin | Stability in the gastric environment (pepsin): largely stable in the gastric environment
